Measurements: patent US8552205B2, “Derivatives of 6,7-dihydro-5H-imidazo[1,2-alpha]imidazole-3-carboxylic acid amides” (Boehringer Ingelheim International GmbH, priority 2007, dated 2013)

Each molecule was assayed on IL-2 production in human whole blood stimulated with staphylococcal enterotoxin B (assay: not given). Conditions: not given.
Type: cell-based

Row | Structure (SMILES) | WB
1 | C[C@@]1(Cc2ccc(C#N)cc2)C(=O)N(c2cc(Cl)cc(Cl)c2)c2ncc(C(=O)NC3(C(=O)NC4(c5nnc(C6CC6)[nH]5)CC4)CC3)n21 [BI00659245, (R)-5-(4-Cyano-benzyl)-7-(3,5-dichloro-phenyl)-5-methyl-6-oxo-6,7-dihydro-5H-imidazo[1,2-a]imidazole-3-carboxylic acid {1-[1-(5-cyclopropyl-4H-1,2,4-triazol-3-yl)-cyclopropylcarbamoyl]-cyclopropyl}-amide] | 12 ×

The molecules below were run against T1, LFA-1 (CD18/CD11a) binding to ICAM-1 (Homo sapiens, UniProt P05107+P20701) (assay: Assay to determine inhibition of LFA-1 binding to ICAM-1). Conditions: immunopurified LFA-1 binding to plate-bound sICAM-1; read-out: LFA/ICAM1 Kd.
T1 construct: LFA-1 is immunopurified using the TS2/4 antibody from a 20 g pellet of human JY or SKW3 cells; endogenous in cells; sICAM-1 made in house, secreted from transfected CHO DUX cells
T1 sequence (P20701 26-1170): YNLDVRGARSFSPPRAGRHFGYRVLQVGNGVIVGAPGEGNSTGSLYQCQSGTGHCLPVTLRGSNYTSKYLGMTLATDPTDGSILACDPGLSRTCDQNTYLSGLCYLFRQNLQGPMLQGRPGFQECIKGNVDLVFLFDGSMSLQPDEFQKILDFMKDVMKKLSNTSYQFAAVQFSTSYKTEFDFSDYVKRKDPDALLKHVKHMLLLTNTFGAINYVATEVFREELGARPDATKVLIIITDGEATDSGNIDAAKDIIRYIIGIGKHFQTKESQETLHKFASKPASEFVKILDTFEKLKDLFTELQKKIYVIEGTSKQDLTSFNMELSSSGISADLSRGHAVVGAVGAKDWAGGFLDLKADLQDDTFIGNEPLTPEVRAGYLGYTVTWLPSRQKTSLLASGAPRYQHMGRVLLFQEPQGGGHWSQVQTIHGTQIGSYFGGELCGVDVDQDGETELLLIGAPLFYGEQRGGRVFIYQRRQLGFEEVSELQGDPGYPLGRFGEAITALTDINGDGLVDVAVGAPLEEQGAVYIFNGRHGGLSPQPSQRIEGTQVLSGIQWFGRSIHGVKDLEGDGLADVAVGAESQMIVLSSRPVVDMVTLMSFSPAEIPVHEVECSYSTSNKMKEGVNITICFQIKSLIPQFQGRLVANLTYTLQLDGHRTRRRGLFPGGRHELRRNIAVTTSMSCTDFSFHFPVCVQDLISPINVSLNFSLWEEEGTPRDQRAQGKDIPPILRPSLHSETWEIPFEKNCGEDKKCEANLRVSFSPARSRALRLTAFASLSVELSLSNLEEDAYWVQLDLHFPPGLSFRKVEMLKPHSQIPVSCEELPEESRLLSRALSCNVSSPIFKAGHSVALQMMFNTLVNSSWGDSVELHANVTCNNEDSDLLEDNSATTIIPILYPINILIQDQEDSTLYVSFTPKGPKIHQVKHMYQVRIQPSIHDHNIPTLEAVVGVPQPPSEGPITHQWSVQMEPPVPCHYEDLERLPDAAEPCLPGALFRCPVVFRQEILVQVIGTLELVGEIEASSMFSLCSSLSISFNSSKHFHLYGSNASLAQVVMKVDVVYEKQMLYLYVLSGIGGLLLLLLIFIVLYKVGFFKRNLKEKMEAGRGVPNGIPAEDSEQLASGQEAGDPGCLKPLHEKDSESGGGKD
T1 sequence (P05107 23-769): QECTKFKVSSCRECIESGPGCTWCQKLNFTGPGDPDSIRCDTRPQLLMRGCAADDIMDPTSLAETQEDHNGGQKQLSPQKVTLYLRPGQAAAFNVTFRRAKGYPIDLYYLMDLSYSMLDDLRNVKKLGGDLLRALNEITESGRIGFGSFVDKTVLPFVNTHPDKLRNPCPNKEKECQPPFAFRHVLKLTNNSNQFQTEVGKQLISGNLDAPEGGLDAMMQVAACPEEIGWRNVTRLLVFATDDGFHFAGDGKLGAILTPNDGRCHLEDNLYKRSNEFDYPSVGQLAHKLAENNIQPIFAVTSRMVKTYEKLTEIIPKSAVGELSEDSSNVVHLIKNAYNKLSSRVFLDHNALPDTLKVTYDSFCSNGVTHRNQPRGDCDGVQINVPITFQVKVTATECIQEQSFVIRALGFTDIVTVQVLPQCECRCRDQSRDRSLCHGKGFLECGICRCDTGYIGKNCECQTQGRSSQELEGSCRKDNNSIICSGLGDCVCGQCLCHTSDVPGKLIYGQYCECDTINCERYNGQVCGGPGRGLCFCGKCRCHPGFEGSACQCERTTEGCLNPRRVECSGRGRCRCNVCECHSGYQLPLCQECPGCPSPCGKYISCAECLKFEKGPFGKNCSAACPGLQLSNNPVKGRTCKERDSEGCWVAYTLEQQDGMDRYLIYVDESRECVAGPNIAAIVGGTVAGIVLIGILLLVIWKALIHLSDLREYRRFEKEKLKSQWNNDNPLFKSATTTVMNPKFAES
From the text: Assay to Determine Inhibition of LFA-1 Binding to ICAM-1
This assay protocol is designed to study the direct antagonism, by a test compound, of the interaction of ICAM-1 with the Leukointegrin CD18/CD11a (LFA-1).
LFA-1 is immunopurified using the TS2/4 antibody from a 20 g pellet of human JY or SKW3 cells, utilizing a protocol previously described (Dustin, M. J.; et al., J. Immunol. 1992, 148, 2654-2660). The LFA-1 is purified from SKW3 lysates by immunoaffinity chromatography on TS2/4 LFA-1 mAb Sepharose and eluted at pH 11.5 in the presence of 2 mM MgCl2 and 1% octylglucoside. After collection and neutralization of fractions from the TS2/4 column, samples are pooled and precleared with Protein G agarose.
A soluble form of ICAM-1 is constructed, expressed, purified and characterized as previously described (Marlin, S.; et al., Nature, 1990, 344, 70-72 and see Arruda, A.; et al., Antimicrob. Agents Chemother. 1992, 36, 1186-1192). Briefly, isoleucine 454 which is located at the putative boundary between domain 5 of the ectodomain and the transmembrane domain, is changed to a stop codon using standard oligonucleotide-directed mutagenesis. This construction yields a molecule identical with the first 453 amino acids of membrane bound ICAM-1. An expression vector is created with a hamster dihydrofolate reductase gene, a neomycin-resistance marker, and the coding region of the sICAM-1 construct described above, along with the promoter, splice signals, and polyadenylation signal of the SV40 early region. The recombinant plasmid is transfected into CHO DUX cells using standard calcium phosphate methods. Cells are passaged in selective media (G418) and colonies secreting sICAM-1 are amplified using methotrexate. sICAM-1 is purified from serum-free media using traditional non-affinity chromatographic techniques, including ion exchange and size exclusion chromatography.
LFA-1 binding to ICAM-1 is monitored by first incubating sICAM-1 at 40 μg/mL in Dulbecco's phosphate buffered saline with calcium and magnesium, additional 2 mM MgCl2 and 0.1 mM PMSF (Diluting Buffer) in a 96-well plate for 30 min at room temperature. Plates are then blocked by the addition of 2% (w/v) bovine serum albumin in Diluting Buffer for 37° C. for 1 h. Blocking solution is removed from wells, and test compounds are diluted and then added followed by the addition of approximately 25 ng of immunoaffinity purified LFA-1. The LFA-1 is incubated in the presence of test compound and ICAM-1 at 37° C. for 1 h. Wells are washed 3 times with Diluting Buffer. The bound LFA-1 is detected by the addition of a polyclonal antibody directed against a peptide corresponding to the CD18 cytoplasmic tail in a 1:100 dilution with Diluting Buffer and 1% BSA and allowed to incubate for 45 min at 37° C. Wells are washed 3 times with Diluting Buffer and the bound polyclonal antibody is detected by the addition of a 1:4000 dilution of horse radish peroxidase conjugated to goat immunoglobulin directed against rabbit immunoglobulin. This reagent is allowed to incubate for 20 min at 37° C., wells are washed as above and the substrate for the horse radish peroxidase is added to each well to develop a quantitative colorimetric signal proportional to the amount of LFA-1 bound to sICAM-1. Soluble ICAM-1 (60 μg/mL) is used as a positive control for inhibition of the LFA-1/ICAM-1 interaction. The lack of the addition of LFA-1 to the binding assay is used as a background control for all samples. A dose-response curve is obtained for all test compounds.

Row | Structure (SMILES) | Kd
2 | C[C@H](NC(=O)c1cnc2n1[C@](C)(Cc1ccc(C#N)cc1)C(=O)N2c1cc(Cl)cc(Cl)c1)C(=O)NCCN1CCOCC1 [Compound 259] | 120 nM
3 | COC(=O)[C@H]1CC[C@@H](NC(=O)C2(NC(=O)c3cnc4n3[C@](C)(Cc3ccc(C#N)cc3)C(=O)N4c3cc(Cl)cc(Cl)c3)CC2)C1 [Compound 109] | 28 nM
4 | C[C@@]1(Cc2ccc(C#N)cc2)C(=O)N(c2cc(Cl)c(F)c(Cl)c2)c2ncc(C(=O)NC3(C(=O)NC4(c5nccs5)CC4)CC3)n21 [Compound 60] | 13 nM
5 | C[C@@]1(Cc2ccc(C#N)cc2)C(=O)N(c2cc(Cl)cc(Cl)c2)c2ncc(C(=O)NC3(C(=O)N[C@@H]4CC[C@H](C(N)=O)C4)CC3)n21 [Compound 105] | 24 nM
6 | C[C@H](NC(=O)c1cnc2n1[C@](C)(Cc1ccc(C#N)cc1)C(=O)N2c1cc(Cl)cc(Cl)c1)C(=O)NC1CCC[C@H]1C(N)=O (stereo partly shown) [Compound 114] | 32 nM
7 | C[C@@]1(Cc2ccc(C#N)cc2)C(=O)N(c2cc(Cl)c(F)c(Cl)c2)c2ncc(C(=O)NC3(C(=O)NC4(c5nnc[nH]5)CC4)CC3)n21 [Compound 62] | 7 nM
8 | C[C@H](NC(=O)c1cnc2n1[C@](C)(Cc1ccc(C#N)cc1)C(=O)N2c1cc(Cl)c(F)c(Cl)c1)C(=O)NC1(c2ccccn2)CC1 [Compound 55] | 10 nM
9 | CC(=O)N[C@H]1CCN(C(=O)C2(NC(=O)c3cnc4n3[C@](C)(Cc3ccc(C#N)cc3)C(=O)N4c3cc(Cl)cc(Cl)c3)CC2)C1 [Compound 12] | 5.4 nM
10 | C[C@H](NC(=O)c1cnc2n1[C@](C)(Cc1ccc(C#N)cc1)C(=O)N2c1cc(Cl)cc(Cl)c1)C(=O)N1CCC[C@@H]1CO [Compound 215] | 39 nM
11 | C[C@@H](NC(=O)c1cnc2n1[C@](C)(Cc1ccc(C#N)cc1)C(=O)N2c1cc(Cl)cc(Cl)c1)C(=O)NC1(C(=O)O)CC1 [Compound 107] | 28 nM
12 | C[C@@]1(Cc2ccc(C#N)cc2)C(=O)N(c2cc(Cl)cc(Cl)c2)c2ncc(C(=O)NC3(C(=O)N4CCC(S(C)(=O)=O)C4)CC3)n21 (stereo partly shown) [Compound 185] | 24 nM
13 | CCN(C(C)=O)C1CCN(C(=O)C2(NC(=O)c3cnc4n3[C@](C)(Cc3ccc(OC(F)(F)F)cc3)C(=O)N4c3cc(Cl)cc(Cl)c3)CC2)C1 (stereo partly shown) [Compound 187] | 22 nM
14 | C[C@@H](NC(=O)c1cnc2n1[C@](C)(Cc1ccc(C#N)cc1)C(=O)N2c1cc(Cl)cc(Cl)c1)C(=O)Nc1nccs1 [Compound 286] | 100 nM
15 | CC(=O)N1CCC(NC(=O)C2(NC(=O)c3cnc4n3[C@](C)(Cc3ccc(C#N)cc3)C(=O)N4c3cc(Cl)cc(Cl)c3)CC2)CC1 [Compound 143] | 71 nM
16 | C[C@H](NC(=O)c1cnc2n1[C@](C)(Cc1ccc(C#N)cc1)C(=O)N2c1cc(Cl)cc(Cl)c1)C(=O)N1CCC[C@@H](C(N)=O)C1 [Compound 13] | 2.4 nM
17 | C[C@@]1(Cc2ccc(C#N)cc2)C(=O)N(c2cc(Cl)cc(Cl)c2)c2ncc(C(=O)NC3(C(=O)NC4(C(N)=O)CC4)CC3)n21 [Compound 72] | 8.4 nM
18 | C[C@@]1(Cc2ccc(C#N)cc2)C(=O)N(c2cc(Cl)cc(Cl)c2)c2ncc(C(=O)NC3(C(=O)N4CC[C@@H](c5noc(=O)[nH]5)C4)CC3)n21 [Compound 9] | 4.6 nM
19 | CC(=O)NC1CCCN(C(=O)C2(NC(=O)c3cnc4n3[C@](C)(Cc3ccc(C#N)cc3)C(=O)N4c3cc(Cl)cc(Cl)c3)CC2)C1 (stereo partly shown) [Compound 201] | 34 nM
20 | C[C@@H](NC(=O)c1cnc2n1[C@](C)(Cc1ccc(C#N)cc1)C(=O)N2c1cc(Cl)cc(Cl)c1)C(=O)Nc1ccnn1C [Compound 129] | 45 nM
21 | C[C@H](NC(=O)c1cnc2n1[C@](C)(Cc1ccc(C#N)cc1)C(=O)N2c1cc(Cl)cc(Cl)c1)C(=O)N[C@H](C)c1ccccn1 [Compound 2] | 8.9 nM
22 | C[C@@]1(Cc2ccc(C#N)cc2)C(=O)N(c2cc(Cl)cc(Cl)c2)c2ncc(C(=O)NC3(C(=O)N4CC[C@@H](O)C4)CC3)n21 [Compound 160] | 5.9 nM
